Usually pIC50 stands for the IC50 on a negative log10 scale, so that one unit is a factor of ten.

The record followed here is US20100216779A1 (GLAXOSMITHKLINE LLC, priority 2007, published 2010).

Series [1] has as its system NCI-H929 (multiple myeloma). The series is described as follows: Inhibition of cell proliferation, CellTiter-Glo, NCI-H929. As to conditions: Homo sapiens, 72 h. It is filed as cell-based. The method, boiled down:
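Cells were grown in medium with 10% FBS at 37° C, 5% CO2. Cell number was read as CellTiter-Glo luminescence (cellular ATP), with untreated wells as control.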

In a further series the target is T1, human IGF1R (hIGF1R) (Homo sapiens, UniProt P08069).
T1 construct: containing amino acid residues 957-1367 of human IGF1R; made in house; host or cells: Sf9 cells, baculovirus
T1 sequence (P08069 957-1367): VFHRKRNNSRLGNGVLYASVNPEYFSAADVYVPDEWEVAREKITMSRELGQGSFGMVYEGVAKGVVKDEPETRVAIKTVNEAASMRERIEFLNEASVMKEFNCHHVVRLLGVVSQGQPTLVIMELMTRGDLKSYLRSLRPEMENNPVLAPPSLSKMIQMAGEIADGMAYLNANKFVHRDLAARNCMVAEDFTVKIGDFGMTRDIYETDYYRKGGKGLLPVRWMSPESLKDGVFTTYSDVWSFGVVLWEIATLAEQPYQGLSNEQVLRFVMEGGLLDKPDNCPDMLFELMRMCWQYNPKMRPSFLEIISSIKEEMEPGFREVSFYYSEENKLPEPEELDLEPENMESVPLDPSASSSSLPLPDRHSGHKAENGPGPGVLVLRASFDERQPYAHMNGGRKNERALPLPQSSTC
Kind of series: IGF1R TR-FRET assay using peptide as the phosphoacceptor. As to conditions: 10 μM ATP, 0.5 nM activated enzyme. It is filed as biochemical. On the procedure:
A. IR and IGF1 R Time Resolved Fluorescence Resonance Energy Transfer (TR-FRET) Assay Using Peptide as the Phosphoacceptor
Substrate phosphorylation assays are carried out as follows:
The Source of Substrate Peptide
The biotinylated substrate peptide, (sequence-Biotin-aminohexyl-AEEEEY*[…]-NH2) SEQ. ID. 1 is purchased from QCB, Inc. (Hopkinton, Mass.). Purity is determined by HPLC. The calculated molecular mass of the peptide is 2216 dalton. Tyrosine phosphorylation by human IGF1R (hIGF1R) or human IR (hIR) occurs as indicated (Y*) in the peptide sequence described. Solid peptide sample is dissolved to approximately 1 mM in DMSO, aliquoted, and stored at −20° C. until use. True peptide concentration is determined by amino acid analysis.
The Source of Enzyme: • hIGF1R: GST-rTEV-IGF-1R (957-1367) containing amino acid residues 957-1367 of human IGF1R (as annotated by National Center for Biotechnology Information (NCBI) accession number NP_000866) is purified from a baculovirus expression system in Sf9 cells using Glutathione Sepharose 4FF column chromatography followed by Sephadex-200 size exclusion column chromatography. Enzyme purity of approximately 95% is achieved. Samples, in 25 mM Tris-HCl, 250 mM NaCl, 5% glycerol, 1 mM DTT, pH 7.5, are stored at −80° C. until use. • hIR: GST-rTEV-IR(979-1382) containing amino acid residues 979-1382 of human IR (as annotated by NCBI accession number NP_000199) is expressed and purified by the same process as hIGF1R. Enzyme purity of approximately 92% is achieved. Samples, in 25 mM Tris-HCl, 250 mM NaCl, 5% glycerol, 1 mM DTT, pH 7.5, are stored at −80° C. until use.
Activation of hIGF1R and hIR by Autophosphorylation: • hIGF1R: Activation of GST-rTEV-IGF-1R(957-1367) is achieved by a 4 minute incubation of hIGF1R (2.7 μM final) with 2 mM ATP in 50 mM HEPES, 20 mM MgCl2, 0.1 mg/mL BSA, at room temperature. Autophosphorylation is stopped by addition of EDTA (to 100 mM final). Aliquoted samples are flash frozen in liquid nitrogen and stored at −80° C. until use. • hIR: Activation of […] is achieved by a 5 minute incubation of hIR (2.7 μM final) with 2 mM ATP in 100 mM HEPES, 10 mM MgCl2, 0.1 mg/mL BSA, at room temperature. Autophosphorylation is stopped by addition of EDTA (to 100 mM final). Aliquoted samples are flash frozen in liquid nitrogen and stored at −80° C. until use. • Kinase Assay of Purified hIGF1R or hIR:
Assays are performed in 384-well (Greiner, Catalog No. 784076) microtiter plates. Reaction buffer (50 mM HEPES buffer, pH 7.5; 10 mM MgCl2; 3 mM DTT; 1 mM CHAPS; 0.1 mg/mL BSA) for peptide phosphorylation (10 μl volume) contained, in final concentrations, 500 nM biotinylated peptide substrate; 10 μM ATP; and purified, activated hIGF1R or hIR (0.5 nM). Some compounds were initially assayed against IGF1R in buffer without DTT or CHAPS. […] Compounds, titrated in DMSO, are evaluated at eleven concentrations ranging from 50 μM to 0.2 nM. […] No effect on activity relative to controls without DMSO is observed for hIGF1R or IR at these DMSO amounts. Reactions are incubated for 1 hour at room temperature and are stopped by a 5 μl addition of EDTA (to 33 mM). A further addition of 5 μl detection reagents (for final 7 nM Streptavidin-APC (PerkinElmer #CR130-150), 1 nM Europium-labeled anti-phosphotyrosine monoclonal antibody (PerkinElmer #AD0067), added in reaction buffer (without DTT), is required for signal generation. After 30 minutes, signal is read on PerkinElmer Viewlux microplate imager or Wallac Victor fluorometer.
Data were fitted to the curve described by:
y=((Vmax*x)/(K+x)) where • Vmax is the upper asymptote and • K is the IC50.
The results for each tested compound were recorded as pIC50 calculated as follows: […]
(In TR-FRET formats the signal depends on donor and acceptor labels being close together.)

Series [2] concerns the target T2, IR (NIH-3T3 cells over expressing human IGF-1R or IR) (Homo sapiens, UniProt P06213).
T2 construct: expressed in transfected cells; host or cells: NIH-3T3 (mouse fibroblasts)
The series is described as follows: IR cellular autophosphorylation (DELFIA). It is filed as cell-based. Particulars: NIH-3T3 cells over expressing IR, insulin stimulated. The method, boiled down:
(§1)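 Readout: DELFIA on lysates, with anti-IGF-1R or anti-IR capture and europium anti-pTyr detection, expressed relative to 100% ligand-stimulated signal. Human IGF-1R- or IR-overexpressing NIH-3T3 cells got compound (1.5 nM–30 uM) for 2 h before 15 min IGF-1 (30 ng/mL) or insulin (3 ug/mL).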

Series [3] has as its target T3, human IGF-1R (NIH-3T3 cells over expressing human IGF-1R) (Homo sapiens, UniProt P08069).
T3 construct: expressed in transfected cells; host or cells: NIH-3T3 (mouse fibroblasts)
Kind of series: IGF-1R cellular autophosphorylation (DELFIA). It is filed as cell-based. Particulars: IGF-1 stimulated. The method, boiled down: as §1

The subject of a further series is COLO205 (colon). The series is described as follows: Inhibition of cell proliferation, CellTiter-Glo, COLO205. Format: cell-based. Particulars: Homo sapiens, COLO 205, 72 h. The method, boiled down:
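Exponentially growing COLO205 cells in medium with 10% FBS were plated below 2000 cells/well at 37 °C, 5% CO2. Untreated wells served as controls.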

In series [4] the test system is LISN cell (mouse 3T3 fibroblasts transduced with human IGF-1R) tumors. The series is described as follows: In vivo efficacy, mice bearing LISN cell tumors. Particulars: for tumor growth inhibition at day 21: LISN (start approx. 362 mm^3). The method, then:
E. In Vivo Efficacy—Mouse Models
The efficacy of the compounds of Examples 57 and 58 were assessed together in an in vivo efficacy experiment performed on mice bearing LISN cell (mouse 3T3 fibroblasts transduced with human IGF-1R) tumors. Fifty six female nude mice bearing subcutaneous LISN cell tumors were measured for tumor size and body weight and block randomized into seven groups of eight mice with an equal average tumor volume of approximately 200 mm3. Mice were dosed with either vehicle (20% SBE pH3.5), Example 57 or Example 58. The dosing schedules for each compound were based on previous experiments with the compounds and doses chosen to give the highest tumor growth inhibition and a dose response. Example 58 was dosed at 30, 100 and 300 mg/kg QD for 21 days while Example 57 was dosed at 30 mg/kg QD for 21 days, 15 mg/kg BID for 21 days and 30 mg/kg QDx3 days/week for 3 weeks.
The tumors on mice being treated with vehicle grew with the expected exponential growth throughout the 21 day study. […] The lower dose of 30 mg/kg of Example 58 achieved 28% tumor growth inhibition.
The efficacy of the compounds of Examples 237 and 219 were assessed together in an in vivo efficacy experiment performed on mice bearing LISN cell (mouse 3T3 fibroblasts transduced with human IGF-1R) tumors. Sixty four female nude mice bearing subcutaneous LISN cell tumors were measured for tumor size and body weight and block randomized into eight groups of eight mice with an equal average tumor volume of approximately 362 mm^3. Mice were dosed with either vehicle (20% SBE pH3.5), Example 237 or Example 219. The dosing schedules for each compound were based on previous experiments with the compounds and doses chosen to give the highest tumor growth inhibition and a dose response. Example 237 was administered at 30 and 60 mg/kg QD for 21 days and 30 mg/kg BID for 21 days while Example 219 was administered at 50 and 100 mg/kg QD for 21 days, 25 and 50 mg/kg BID for 21 days.
The tumors on mice being treated with vehicle grew with the expected exponential growth throughout the 21 day study. […] The lower dose of 30 mg/kg QD of Example 237 achieved 15% tumor growth inhibition at day 21 (note: 2 animals were euthanized prior to the last measurement). […] This recovered to 3% by the end of dosing and fully recovered after dosing was concluded. […] This recovered fully within 4 days after the completion of dosing.

pIC50: −log10 of the molar value. Some results are limits rather than exact numbers.

T2 sequence (P06213 28-1382): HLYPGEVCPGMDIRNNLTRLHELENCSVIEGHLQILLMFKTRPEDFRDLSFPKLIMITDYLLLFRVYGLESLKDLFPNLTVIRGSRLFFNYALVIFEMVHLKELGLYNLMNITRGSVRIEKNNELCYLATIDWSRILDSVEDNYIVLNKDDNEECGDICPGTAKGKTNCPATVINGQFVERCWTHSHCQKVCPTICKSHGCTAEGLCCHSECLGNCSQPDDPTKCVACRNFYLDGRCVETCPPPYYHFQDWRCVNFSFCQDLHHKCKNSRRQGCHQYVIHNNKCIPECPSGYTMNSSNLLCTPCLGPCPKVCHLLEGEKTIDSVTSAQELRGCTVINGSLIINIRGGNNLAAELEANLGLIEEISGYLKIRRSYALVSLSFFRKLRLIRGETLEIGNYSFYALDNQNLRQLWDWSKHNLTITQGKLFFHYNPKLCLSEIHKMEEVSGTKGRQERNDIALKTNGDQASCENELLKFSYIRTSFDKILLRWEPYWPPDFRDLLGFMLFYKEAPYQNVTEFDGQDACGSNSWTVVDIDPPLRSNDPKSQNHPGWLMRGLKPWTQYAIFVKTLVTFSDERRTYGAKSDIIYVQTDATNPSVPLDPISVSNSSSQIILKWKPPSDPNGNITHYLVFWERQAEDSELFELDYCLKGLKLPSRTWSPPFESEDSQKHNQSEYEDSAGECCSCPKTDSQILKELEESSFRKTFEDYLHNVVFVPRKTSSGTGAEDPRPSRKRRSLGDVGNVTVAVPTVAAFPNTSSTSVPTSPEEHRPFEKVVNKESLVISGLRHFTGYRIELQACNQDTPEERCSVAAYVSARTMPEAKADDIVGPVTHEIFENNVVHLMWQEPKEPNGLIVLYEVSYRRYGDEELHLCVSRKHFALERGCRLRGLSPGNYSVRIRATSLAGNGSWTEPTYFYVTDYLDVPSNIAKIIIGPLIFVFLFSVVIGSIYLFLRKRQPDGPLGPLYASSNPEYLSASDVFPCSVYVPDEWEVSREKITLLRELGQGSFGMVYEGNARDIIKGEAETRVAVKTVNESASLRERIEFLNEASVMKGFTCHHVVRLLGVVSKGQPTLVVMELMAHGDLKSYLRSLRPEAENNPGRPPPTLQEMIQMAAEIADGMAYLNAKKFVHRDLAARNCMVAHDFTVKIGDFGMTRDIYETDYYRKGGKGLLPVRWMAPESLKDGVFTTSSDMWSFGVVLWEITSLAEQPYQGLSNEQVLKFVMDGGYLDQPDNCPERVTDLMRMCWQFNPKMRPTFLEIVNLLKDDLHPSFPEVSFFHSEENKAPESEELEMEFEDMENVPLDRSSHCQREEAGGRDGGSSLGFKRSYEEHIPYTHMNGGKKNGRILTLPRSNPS
T3 sequence (P08069 31-1367): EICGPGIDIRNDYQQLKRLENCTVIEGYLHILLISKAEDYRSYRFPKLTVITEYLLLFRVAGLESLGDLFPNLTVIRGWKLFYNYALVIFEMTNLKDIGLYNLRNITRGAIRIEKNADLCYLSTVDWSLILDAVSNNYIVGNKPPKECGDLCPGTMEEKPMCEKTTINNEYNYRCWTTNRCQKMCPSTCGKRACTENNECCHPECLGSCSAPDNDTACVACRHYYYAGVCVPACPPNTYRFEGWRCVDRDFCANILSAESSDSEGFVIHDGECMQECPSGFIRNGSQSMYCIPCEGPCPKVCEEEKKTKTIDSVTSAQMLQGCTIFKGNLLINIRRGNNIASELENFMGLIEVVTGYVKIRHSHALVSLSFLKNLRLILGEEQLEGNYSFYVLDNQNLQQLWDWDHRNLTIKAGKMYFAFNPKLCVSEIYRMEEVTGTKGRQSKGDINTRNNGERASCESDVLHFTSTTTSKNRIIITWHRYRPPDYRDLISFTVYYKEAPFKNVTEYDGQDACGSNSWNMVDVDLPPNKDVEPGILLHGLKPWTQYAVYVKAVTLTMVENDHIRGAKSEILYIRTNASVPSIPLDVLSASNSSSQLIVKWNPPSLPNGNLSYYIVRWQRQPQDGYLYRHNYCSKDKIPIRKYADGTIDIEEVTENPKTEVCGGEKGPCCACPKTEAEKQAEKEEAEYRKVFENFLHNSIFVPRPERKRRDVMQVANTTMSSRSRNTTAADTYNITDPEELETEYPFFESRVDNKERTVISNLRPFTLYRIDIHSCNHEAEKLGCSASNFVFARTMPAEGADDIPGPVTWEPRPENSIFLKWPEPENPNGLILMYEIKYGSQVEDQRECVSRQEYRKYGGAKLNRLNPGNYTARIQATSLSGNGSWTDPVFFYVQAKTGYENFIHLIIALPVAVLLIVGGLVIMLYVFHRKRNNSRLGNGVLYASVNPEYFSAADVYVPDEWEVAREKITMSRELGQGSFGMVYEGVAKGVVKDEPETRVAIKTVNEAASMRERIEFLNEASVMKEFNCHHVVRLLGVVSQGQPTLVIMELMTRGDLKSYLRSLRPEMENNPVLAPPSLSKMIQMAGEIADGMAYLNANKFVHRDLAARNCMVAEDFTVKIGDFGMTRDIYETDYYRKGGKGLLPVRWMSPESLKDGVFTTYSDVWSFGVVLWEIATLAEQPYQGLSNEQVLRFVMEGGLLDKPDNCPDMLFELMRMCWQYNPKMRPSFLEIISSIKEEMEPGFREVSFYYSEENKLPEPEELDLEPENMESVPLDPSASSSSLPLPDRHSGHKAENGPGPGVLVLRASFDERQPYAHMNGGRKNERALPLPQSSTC

For `COc1cc(N2CCC(CCS(C)(=O)=O)CC2)c(C)cc1Nc1nccc(-c2c(-c3ccc(OC(C)C)c(C(=O)Nc4c(F)cccc4F)c3)nc3ccccn23)n1` [Example 214, N-(2,6-difluorophenyl)-2-[(1-methylethyl)oxy]-5-(3-{2-[(5-methyl-2-(methyloxy)-4-{4-[2-(methylsulfonyl)ethyl]-1-piperidinyl}phenyl)amino]-4-pyrimidinyl}imidazo[1,2-a]pyridin-2-yl)benzamide], the pIC50 is above 6.60 in series [1], above 7.00 in series [2], above 7.00 in series [3] and above 6.60 in the series with COLO205 (colon). Moreover, the “IGF-1R pIC50” value on human IGF1R (hIGF1R) is listed as “++ (at least one average pIC50 measurement greater than 6 against the kinase tested but no average measurement greater than pIC50 of 7)”.

As for `CCOc1cc(N2CCC(CCS(C)(=O)=O)CC2)c(C)cc1Nc1nccc(-c2c(-c3ccc(OC)c(C(=O)Nc4c(F)cccc4F)c3)nc3ccccn23)n1` [Example 219, N-(2,6-difluorophenyl)-5-(3-{2-[(2-(ethyloxy)-5-methyl-4-{4-[2-(methylsulfonyl)ethyl]-1-piperidinyl}phenyl)amino]-4-pyrimidinyl}imidazo[1,2-a]pyridin-2-yl)-2-(methyloxy)benzamide], the pIC50 in series [1] was above 6.60; in series [2] it was above 7.00; in series [3], above 7.00; in the series with COLO205 (colon), above 6.60. For the same compound, the “tumor growth inhibition at day 21” value is 16% in series [4] (25 mg/kg BID for 21 days), 76% in series [4] (50 mg/kg BID for 21 days), 29% in series [4] (50 mg/kg QD for 21 days) and 44% in series [4] (100 mg/kg QD for 21 days). Further, the “time to full recovery of body weight after the completion of dosing” value in series [4] (LISN, 25 mg/kg BID and 50 mg/kg BID) is reported as at most 4 days. For the same compound, the body weight loss is reported as 4% in series [4] (LISN, 25 mg/kg BID for 21 days); 6% in series [4] (LISN, 50 mg/kg BID for 21 days); “no body weight loss” in series [4] (LISN, 100 mg/kg and 50 mg/kg QD).

`COc1cc(N2CCC(N3CCN(S(C)(=O)=O)CC3)CC2)ccc1Nc1nccc(-c2c(-c3cccc(C(=O)Nc4c(F)cccc4F)c3)nc3ccccn23)n1` [Example 58, N-(2,6-difluorophenyl)-3-(3-{2-[(2-(methyloxy)-4-{4-[4-(methylsulfonyl)-1-piperazinyl]-1-piperidinyl}phenyl)amino]-4-pyrimidinyl}imidazo[1,2-a]pyridin-2-yl)benzamide]: the pIC50 in series [1] is above 6.60; in series [2] it was above 7.00; in series [3], above 7.00; in the series with COLO205 (colon), 6.00 to 6.60. Also, the tumor growth inhibition was 28% in series [4] (LISN, 30 mg/kg QD for 21 days); 46% in series [4] (LISN, 100 mg/kg QD for 21 days); 45% in series [4] (LISN, 300 mg/kg QD for 21 days). Further, in series [4] (LISN, 30, 100 and 300 mg/kg QD, throughout the study), the “effect on body weight loss” value was “no effect”.

For `CCc1cc(Nc2nccc(-c3c(-c4ccc(OC)c(C(=O)Nc5c(F)cccc5F)c4)nc4ccccn34)n2)c(OC)cc1N1CCC(N2CCN(S(C)(=O)=O)CC2)CC1` [Example 237, N-(2,6-difluorophenyl)-5-(3-{2-[(5-ethyl-2-(methyloxy)-4-{4-[4-(methylsulfonyl)-1-piperazinyl]-1-piperidinyl}phenyl)amino]-4-pyrimidinyl}imidazo[1,2-a]pyridin-2-yl)-2-(methyloxy)benzamide], the pIC50 in series [1] was above 6.60; in series [2], above 7.00; in series [3], above 7.00; in the series on COLO205 (colon) it was above 6.60. In addition, the “tumor growth inhibition at day 21” value is 84% in series [4] (30 mg/kg BID for 21 days); 15% in series [4] (30 mg/kg QD for 21 days, 2 animals euthanized prior to the last measurement); 41% in series [4] (60 mg/kg QD for 21 days). Besides, in series [4] (LISN, 30 mg/kg BID), the “body weight loss by the end of dosing” value worked out at 3%. Further, the “initial body weight loss” value in series [4] (LISN, 30 mg/kg BID) was 6%. The “effect on body weight loss” value in series [4] (LISN, other groups (30 and 60 mg/kg QD)) is on record as “no effect”.
